Measured values from US20230151037A1, “GPR40 AGONISTS” (Kallyope, Inc., priority 2020, published 2023).

Target: T1, human GPR40 (Homo sapiens, UniProt O14842)
T1 construct: host or cells: CHO-K1
Test: Inositol phosphate accumulation assay (IP1 HTRF) in CHO-K1 cells expressing human GPR40
Format: cell-based
Settings: 90 min
Description: CHO-K1 cells expressing human GPR40 were purchased from DiscoverX (95-1005C2). HEK293 cells expressing mouse FFAR1 were prepared using a mouse FFAR1 carrying plasmid purchased from OriGene Technologies (MR222997). The cells were transfected using Lipofectamine 2000 using manufacturer instructions and stable cell line was established from a single cell using geneticine selection. Assay ready frozen (ARF) cells were prepared and used throughout the study.
The assay was performed in a 384-well plate format using IP1 assay kit from Cis-Bio. ARF cells expressing FFAR1 (mouse and human) were thawed, washed and then plated in the appropriate medium (F12 based medium for CHO hFFAR1 and DMEM based medium for HEK293 mFFAR1-both were supplemented with 10% FBS and penicillin/streptomycin). 20 μL of 3.5×10^5 cells/mL were plated on a Poly D-Lysine coated 384-well white plate. The cells were then incubated for 16 hr at 37° C./5% CO2. After 16 hr the medium was removed and 15 μL of stimulation buffer containing the test compounds was added to the cells. The plates were then incubated for 90 min at 37° C./5% CO2. 5 μL of detection buffer (prepared as described in the IP-one kit) was added to each well and the plates were incubated at RT for 1 hr.
[…] was measured using ClarioSTAR plate reader, calculating the ratio between emissions at 665 nm and 620 nm (HTRF ratio). HTRF ratio for positive (Max) and negative (Min) controls were used to normalize HTRF data and generate values for % activity. EC50 and Max activity values were determined using a standard 4-parameter fit.

T1 sequence (O14842 whole entry): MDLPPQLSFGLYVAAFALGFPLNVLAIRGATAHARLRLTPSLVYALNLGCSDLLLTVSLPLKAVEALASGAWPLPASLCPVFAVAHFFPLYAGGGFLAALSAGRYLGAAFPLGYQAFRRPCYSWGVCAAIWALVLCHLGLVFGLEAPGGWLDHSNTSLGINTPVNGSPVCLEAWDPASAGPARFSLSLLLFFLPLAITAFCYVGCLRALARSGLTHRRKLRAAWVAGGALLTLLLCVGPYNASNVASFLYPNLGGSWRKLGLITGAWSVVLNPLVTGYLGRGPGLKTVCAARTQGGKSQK

Row | Compound | EC50
1 | COc1cc(-c2ccc(COc3cc(C(C)CP(C)(=O)O)ccn3)cc2[C@@H](OC)C(C)(C)C)c(F)cn1 (single isomer, unassigned) [Compound 37] | ≤ 50 nM
2 | COc1ccc(F)c(-c2ccc(COc3cccc(C(C)CP(C)(=O)O)c3)cc2[C@@H](OC)C(C)(C)C)c1 (single isomer, unassigned) [Compound 32] | ≤ 50 nM
3 | COc1cc(-c2ccc(OCc3cccc(C(CP(=O)(O)O)C4CC4)c3)cc2CN(C(C)C)C(C)C)c(F)cn1 (centres unmarked) [Compound 9, (2-cyclopropyl-2-(3-((3-((diisopropylamino)methyl)-4-(5-fluoro-2-methoxypyridin-4-yl)phenoxy)methyl)phenyl)ethyl)phosphonic acid] | > 1000 nM
4 | COc1ccc(F)c(-c2ccc(COc3cc([C@@H](CP(C)(=O)O)C4CC4)ccn3)cc2[C@@H](OC)C(C)(C)C)c1 [Compound 27, ((S)-2-cyclopropyl-2-(2-((2′-fluoro-5′-methoxy-2-((S)-1-methoxy-2,2-dimethylpropyl)-[1,1′-biphenyl]-4-yl)methoxy)pyridin-4-yl)ethyl)(methyl)phosphinic acid] | ≤ 50 nM
5 | COc1cc(-c2ccc(COc3cccc(C(CP(C)(=O)O)C4CC4)c3)c(CN(C(C)C)C(C)C)c2)c(F)cn1 (centres unmarked) [Compound 16, (2-cyclopropyl-2-(3-((2-((diisopropylamino)methyl)-4-(5-fluoro-2-methoxypyridin-4-yl)benzyl)oxy)phenyl)ethyl)(methyl)phosphinic acid] | > 1000 nM
6 | COc1cc(-c2ccc(COc3cccc(C(CP(=O)(O)OC)C4CC4)c3)cc2CN(C(C)C)C(C)C)c(F)cn1 (centres unmarked) [Compound 5, methyl hydrogen (2-cyclopropyl-2-(3-((3-((diisopropylamino)methyl)-4-(5-fluoro-2-methoxypyridin-4-yl)benzyl)oxy)phenyl)ethyl)phosphonate] | > 1000 nM
7 | COc1cc(-c2ccc(COc3cc(C(C)CP(C)(=O)O)ccn3)cc2CN(C(C)C)C(C)C)c(F)cn1 (single isomer, unassigned) [Compound 39, ((R)-2-(2-((3-((diisopropylamino)methyl)-4-(5-fluoro-2-methoxypyridin-4-yl)benzyl)oxy)pyridin-4-yl)propyl)(methyl)phosphinic acid or ((S)-2-(2-((3-((diisopropylamino)methyl)-4-(5-fluoro-2-methoxypyridin-4-yl)benzyl)oxy)pyridin-4-yl)propyl)(methyl)phosphinic acid] | > 1000 nM
8 | COc1cc(-c2ccc(COc3cc(C(C)CP(C)(=O)O)ccn3)cc2[C@@H](OC)C(C)(C)C)c(F)cn1 (single isomer, unassigned) [Compound 38] | ≤ 50 nM
9 | COc1ccc(F)c(-c2ccc(COc3cc(C(C)CP(C)(=O)O)ccn3)cc2[C@@H](OC)C(C)(C)C)c1 (single isomer, unassigned) [Compound 40, ((R)-2-(2-((2′-fluoro-5′-methoxy-2-((S)-1-methoxy-2,2-dimethylpropyl)-[1,1′-biphenyl]-4-yl)methoxy)pyridin-4-yl)propyl)(methyl)phosphinic acid or ((S)-2-(2-((2′-fluoro-5′-methoxy-2-((S)-1-methoxy-2,2-dimethylpropyl)-[1,1′-biphenyl]-4-yl)methoxy)pyridin-4-yl)propyl)(methyl)phosphinic acid] | ≤ 50 nM
10 | COc1cc(-c2ccc(COc3cccc([C@H](C4CC4)[C@@](C)(F)C(=O)NS(C)(=O)=O)c3)cc2CN(C(C)C)C(C)C)c(F)cn1 [Compound 4, (2R,3S)-3-cyclopropyl-3-(3-((3-((diisopropylamino)methyl)-4-(5-fluoro-2-methoxypyridin-4-yl)benzyl)oxy)phenyl)-2-fluoro-2-methyl-N-(methylsulfonyl)propanamide] | ≤ 50 nM
11 | CO[C@H](c1cc(COc2cc([C@@H](CP(C)(=O)O)C3CC3)ccn2)ccc1-c1cc(O)ccc1F)C(C)(C)C [Compound 31, ((S)-2-cyclopropyl-2-(2-((2′-fluoro-5′-hydroxy-2-((S)-1-methoxy-2,2-dimethylpropyl)-[1,1′-biphenyl]-4-yl)methoxy)pyridin-4-yl)ethyl)(methyl)phosphinic acid] | ≤ 50 nM
12 | COc1cccc(-c2ccc(COc3cc([C@@H](CP(C)(=O)O)C4CC4)ccn3)cc2[C@@H](OC)C(C)(C)C)c1 [Compound 30, ((S)-2-cyclopropyl-2-(2-((3′-methoxy-2-((S)-1-methoxy-2,2-dimethylpropyl)-[1,1′-biphenyl]-4-yl)methoxy)pyridin-4-yl)ethyl)(methyl)phosphinic acid] | ≤ 50 nM

Next, values leading:

Row | EC50 | Compound
13 | 50 to 250 nM | COc1cc(-c2ccc(COc3cccc(C(C)CP(C)(=O)O)c3)cc2CN(C(C)C)C(C)C)c(F)cn1 (single isomer, unassigned) [Compound 35, (2-(3-((3-((diisopropylamino)methyl)-4-(5-fluoro-2-methoxypyridin-4-yl)benzyl)oxy)phenyl)propyl)(methyl)phosphinic acid]
14 | > 1000 nM | CCP(=O)(O)CC(c1cccc(OCc2ccc(-c3cc(OC)ncc3F)c(CN(C(C)C)C(C)C)c2)c1)C1CC1 (single isomer, unassigned) [Compound 18, (2-cyclopropyl-2-(3-((3-((diisopropylamino)methyl)-4-(5-fluoro-2-methoxypyridin-4-yl)benzyl)oxy)phenyl)ethyl)(ethyl)phosphinic acid]
15 | > 1000 nM | CCC(C[PH](=O)O)c1cccc(OCc2ccc(-c3cc(OC)ncc3F)c(CN(C(C)C)C(C)C)c2)c1 (centres unmarked) [Compound 23, (2-(3-((3-((diisopropylamino)methyl)-4-(5-fluoro-2-methoxypyridin-4-yl)benzyl)oxy)phenyl)butyl)phosphinic acid]
16 | > 1000 nM | CCP(=O)(O)CC(c1cccc(OCc2ccc(-c3cc(OC)ncc3F)c(CN(C(C)C)C(C)C)c2)c1)C1CC1 (single isomer, unassigned) [Compound 17, (2-cyclopropyl-2-(3-((3-((diisopropylamino)methyl)-4-(5-fluoro-2-methoxypyridin-4-yl)benzyl)oxy)phenyl)ethyl)(ethyl)phosphinic acid]
17 | > 1000 nM | COc1cc(-c2ccc(COc3cccc(C(CP(=O)(O)O)C4CC4)c3)cc2CN(C(C)C)C(C)C)c(F)cn1 (centres unmarked) [Compound 8, (2-cyclopropyl-2-(3-((3-((diisopropylamino)methyl)-4-(5-fluoro-2-methoxypyridin-4-yl)benzyl)oxy)phenyl)ethyl)phosphonic acid]
18 | > 1000 nM | COc1cc(-c2ccc(COc3cccc(C(C4CC4)C(C)(C)P(=O)(O)O)c3)cc2CN(C(C)C)C(C)C)c(F)cn1 (centres unmarked) [Compound 22, (1-cyclopropyl-1-(3-((3-((diisopropylamino)methyl)-4-(5-fluoro-2-methoxypyridin-4-yl)benzyl)oxy)phenyl)-2-methylpropan-2-yl)phosphonic acid]
19 | > 1000 nM | COc1cc(-c2ccc(COc3cccc(C(C4CC4)C(C)P(=O)(O)O)c3)cc2CN(C(C)C)C(C)C)c(F)cn1 (centres unmarked) [Compound 6, (1-cyclopropyl-1-(3-((3-((diisopropylamino)methyl)-4-(5-fluoro-2-methoxypyridin-4-yl)benzyl)oxy)phenyl)propan-2-yl)phosphonic acid]
20 | > 1000 nM | CCP(=O)(O)CC(c1cccc(OCc2ccc(-c3cc(OC)ncc3F)c(CN(C(C)C)C(C)C)c2)c1)C1CC1 (single isomer, unassigned) [Compound 19, (2-cyclopropyl-2-(3-((3-((diisopropylamino)methyl)-4-(5-fluoro-2-methoxypyridin-4-yl)benzyl)oxy)phenyl)ethyl)(ethyl)phosphinic acid]
